How the values were obtained:
Slc-ddy male mice = assay: Activity on hypoxia induced in decapitation of mice (gasping time); format: in vivo; set-up: dose or concentration left out as unconfirmed; settings: gasping time after decapitation, one hour after oral administration
Method: In each group, 3 Slc-ddy male mice (4 weeks) were employed. Each test compound was suspended or dissolved in a 0.5 % methyl cellulose solution. After the concentration was adjusted, the dose became […], the solution was administered orally. One hour after the administration, mice were decapitated and gasping time was measured.
(§1) Inhibition rate was calculated by the following formula. [formula]

platelet aggregation = assay: Inhibitory activity on platelet aggregation (turbidimetry); format: cell-based, New Zealand White male rabbits; settings: for Inhibition rate (%) ADP aggregation: 0.6 µg/mℓ ADP; for Inhibition rate (%) PAF aggregation: 5 x 10⁻⁹M PAF; for Inhibition rate (%) Collagen aggregation: 2 µg/mℓ collagen
Method: Blood was exsanguinated from New Zealand White male rabbits weighing from 2.5 to 3.0 kg and subjected to the test. Each test compound was dissolved in ethanol and prepared to be 1 x 10⁻⁵, 1 x 10⁻⁶ or 1 x 10⁻⁷M respectively. Each aggregation response was measured by turbidimetry. Concentration of aggregating agent was 2 µg/mℓ of collagen, 0.6 µg/mℓ of adenosine 5'-diphosphate (ADP) or 5 x 10⁻⁹M of platelet aggregating factor (PAF).
as §1

[1] = tested on: Aortae abdominalis of male Wister rats; assay: Anti-norepinephrine activity on rat abdominal aorta strip preparations (auto-Magnus apparatus); settings: tension by norepinephrine (10⁻⁷M) regarded as 100
Method: Aortae abdominalis of male Wister rats (8-12 weeks) were delivered and cut in spiral-shape to be strip preparations. Each test compounds was disolved in DMSO. Then, the solution was diluted with distilled water and prepared to be desired concentration. Using an auto-Magnus apparatus, as to the vasoconstriction after adding norepinephrine, contractive forces were measured under the existence of the test compounds.

Slc: ddy male mice [2] = assay: Acute toxicity; format: in vivo; settings: oral administration, death rate after 7 days
Method: (§2) In each group, 6 Slc: ddy male mice weighing 25 to 29 g (6 weeks) were employed. Each compound was administered orally thereto and a value of acute toxicity was evaluated with death rate after 7 days.

Slc: ddy male mice [3] = assay: Activity on stress ulcers (restraint and water immersion); format: in vivo; settings: length of ulcer in glandular stomach; 30 mg/kg orally; restrained and immersed in water of 23°C for 7 hours
Method: In each group, 5 Slc: ddy male mice (6 weeks) were employed. Each test compound was kneaded with Tween-80 followed by adding a 0.5 % solution of gum arabic to prepare 30 mg/10 mℓ solution (solution containing 1.5 % Tween-80 and 0.5 % gum arabic). Then, the preparation was administered orally in a rate of 30 mg/kg. After the administration, the mice were restrained and immersed in a water tank of 23°C for 7 hours. Then, length of the ulcer in the glandular stomach was measured by a stereoscopic microscope (x 10).

Acute toxicity = format: in vivo, mice; settings: mouse, in vivo; oral administration, death rate after 7 days; read-out: LD₅₀
Method: as §2

| Compound | Inhibition rate (%) (Slc-ddy male mice) | Inhibition rate (%) ADP aggregation (platelet aggregation; compound 10⁻⁵ M) [%] | Inhibition rate (%) PAF aggregation (platelet aggregation; compound 10⁻⁵ M) [%] | Inhibition rate (%) ADP aggregation (platelet aggregation; compound 10⁻⁶ M) [%] | Inhibition rate (%) Collagen aggregation (platelet aggregation; compound 10⁻⁶ M) [%] | Inhibition rate (%) ADP aggregation (platelet aggregation; compound 10⁻⁷ M) [%] | Inhibition rate (%) Collagen aggregation (platelet aggregation; compound 10⁻⁷ M) [%] | Contractive force ([1]; compound 10⁻⁷ M) | Contractive force ([1]; compound 10⁻⁸ M) | Contractive force ([1]; compound 10⁻⁹ M) | LD₅₀ (Slc: ddy male mice [2]) [mg/kg] | Inhibition rate (%) (Slc: ddy male mice [3]) | LD50 at 168 h (Acute toxicity) [mg/kg] |
| --- | --- | --- | --- | --- | --- | --- | --- | --- | --- | --- | --- | --- | --- |
| 2,6-dimethyl-4-(3-ethynylphenyl)-3-methoxycarbonyl-5-{4-(6-oxo-1,4,5,6-tetrahydropyridazinon-3-yl)phenyl}aminocarbonyl-1,4-dihydropyridine [Compound 1] | 28.6 | 94 | 64 | 70 | 94 | 21 | 21 | 15.7 | 87.4 | 102.8 | 1000 | 83.0 | – |
| 2,6-dimethyl-4-{3-(3-hydroxy-3-methyl)-1-butyn-1-yl)}phenyl-3-methoxycarbonyl-5-{4-(6-oxo-1,4,5,6-tetrahydropyridazinon-3-yl)phenyl}aminocarbonyl-1,4-dihydropyridine [Compound 7] | 19.1 | 89 | 40 | 73 | 92 | 24 | 25 | 16.3 | 89.2 | 100.3 | 800 | 88.8 | – |
| 2,6-dimethyl-4-{3-(4-hydroxy-1-butyn-1-yl)}phenyl-3-methoxycarbonyl-5-{4-(6-oxo-1,4,5,6-tetrahydropyridazinon-3-yl)phenyl}aminocarbonyl-1,4-dihydropyridine [Compound 6] | 21.5 | 93 | 69 | 68 | 93 | 22 | 22 | 10.8 | 70.2 | 90.5 | 950 | – | – |
| CCOC(=O)C1=C(C)NC(C)=C(C(=O)Nc2ccc(C3=NNC(=O)CC3)cc2)C1c1cc(C#CC(C)(C)O)ccc1OC (centres unmarked) [Compound 17, 2,6-dimethyl-4-{3-(3-hydroxy-3-methyl)-1-butyn-1-yl-6-methoxy}phenyl-3-ethoxycarbonyl-5-{4-(6-oxo-1,4,5,6-tetrahydropyridazinon-3-yl)phenyl}aminocarbonyl-1,4-dihydropyridine] | 25.8 | 82 | 49 | 62 | 100 | 18 | 30 | 8.9 | 70.1 | 87.7 | – | 79.3 | 1000 |
| C#Cc1cccc(C2C(C(=O)Nc3ccc(C4=NNC(=O)CC4CC)cc3)=C(C)NC(N)=C2C(=O)OCCOC)c1 (centres unmarked) [Compound 25, 2-amino-4-(3-ethynylphenyl)-3-methoxyethoxycarbonyl-6-methyl-5-{4-(4-ethyl-6-oxo-1,4,5,6-tetrahydropyridazinon-3-yl)phenyl}aminocarbonyl-1,4-dihydropyridine] | 28.3 | 90 | 62 | 69 | 91 | 29 | 30 | 12.1 | 70.9 | 91.5 | – | 94.3 | 1000 |
